Conditions: rat; liver microsomes; pH 7.4; 15.0 min; 1.0 µM

SMILES | half-life
Clc1cccc(-c2ccc(-c3nnc(CCCc4ccc5cccnc5n4)o3)cc2)c1 | 2.3 min
CC[C@@H](C)Nc1cc(C(=O)NC2CC3CCC(C2)N3c2ccc(C(=O)C3CC3)cn2)c(C)cc1C(N)=O (stereo partly specified) | 23.4 min
N#Cc1cccc(-c2nccc(-n3ccnc3)n2)c1 | 26 min
COC(=O)c1cc2occc2n1Cc1nc(-c2ccc(C)cc2)oc1C | 3.86 min
CCc1cccc(NS(=O)(=O)c2ccc3c(c2)CC(C)N3C(=O)C2CC2)c1 (stereo unspecified) | 1.96 min
Cc1ccc(-c2csc(NC(=O)c3ccncc3NS(=O)(=O)c3ccc(C)cc3)n2)cc1 | 7.3 min
COc1cc(C(=O)NC2CCCc3c2[nH]c2c(Cl)cccc32)cc(OC)c1OC (stereo unspecified) | 8.45 min
Cc1ccc(C)c(NC2=C(c3ccc(C(F)(F)F)cc3)C(=O)c3ccccc32)c1 | 9.11 min
CCOC(=O)C1=C(C)NC(=O)CC1C(=O)Nc1cc(Cl)cc(Cl)c1 (stereo unspecified) | 6.1 min
Cc1sc(NC(=O)Cc2ccc3c(c2)OCO3)nc1-c1ccc2c(c1)CCN2C(=O)c1ccccc1Cl | 24 min
CC(C)Oc1ccc(CCNC(=O)c2cc3sccc3n2Cc2ccccc2)cc1OC(C)C | 2.7 min
O=C1CCCC2=C1C(c1ccccc1I)N=C(Nc1nc3ccccc3o1)N2 (stereo unspecified) | 8.4 min
Cc1ccccc1Nc1c(-c2ccccc2O)nc2sccn12 | 2.71 min
O=C(Nc1nc(-c2ccccc2)cs1)c1ccncc1NS(=O)(=O)c1cccs1 | 12 min
COc1ccnc(NC(=S)N2CCN(c3ncc(C(F)(F)F)cc3Cl)CC2)c1 | > 30 min
CC(C)(C)c1ccc(C(=O)Nc2cn3cc(-n4ccnc4)ccc3n2)cc1 | > 30 min
O=C(Nc1ncnc2sc3c(c12)CCC3)c1ccco1 | 5.6 min
CN(C)CCNC(=O)c1nc2nc(-c3ccccc3)c(-c3cccc(Cl)c3)cc2n1C | > 30 min
COc1c(O)cc2c(c1OC)-c1ccc(SC)c(=O)cc1C(NC(C)=O)CC2 (stereo unspecified) | > 30 min
Cc1noc(C)c1-c1ccc2ncnc(N3CCC(C(=O)O)CC3)c2c1 | > 30 min
Cc1ccc(S(=O)(=O)N2CCN(C(=O)c3cc4c(s3)CCC4)CC2)cc1 | 1.58 min
Nc1ncnc2c1c(-c1cnc3[nH]ccc3c1)nn2C1CCCC1 | 3.09 min

SMILES | half-life
O=C(Cc1cccc(OC(F)(F)F)c1)Nc1ccc(CCCCc2nnc(NC(=O)Cc3ccccn3)s2)nn1 | 20.9 min
Cc1c(O)ccc2c1OC(C)(C)CC2 | 3.9 min
CC(C)(C)c1cc(NC(=O)Nc2ccc(-c3cn4c(n3)sc3cc(OCCN5CCOCC5)ccc34)cc2)no1 | > 30 min
COc1ccc(NC(=O)C2=C(C)NC(Nc3nc4ccccc4o3)=NC2c2ccccc2Br)cc1 (stereo unspecified) | 21 min
O=C1CCCC2=C1C(c1[nH]ncc1Cl)N=C(Nc1nc3cccc(Cl)c3o1)N2 (stereo unspecified) | 4.5 min
Nc1c(C(=O)Nc2ccc(Cl)c(C(F)(F)F)c2)sc2nc3c(cc12)N1CCC3CC1 | 22.1 min
Cc1cc(C)c(CNC(=O)c2nc(-c3ccc(F)cc3)cc3c2ccn3C(C)C)c(=O)[nH]1 | 7.89 min
CCOc1ccc(CCNC(=O)c2cc3ncccc3n2Cc2cccc(C)c2)cc1OCC | 1.9 min
O=[N+]([O-])c1cccc(CSc2nc3ncc(Br)cc3[nH]2)c1 | 6.6 min
CN(C)c1cccc(-c2nnc(N3CCC(C(N)=O)CC3)s2)c1 | 15.7 min
Oc1c(CN2CCN(c3ccccn3)CC2)cc(Cl)c2cccnc12 | 3.23 min
O=S(=O)(Nc1ccccc1)c1ccc(NCc2cccc(Cl)c2O)cc1 | 2.2 min
Cc1ccc2oc(NC3=NC(c4ccccc4Cl)C4=C(CCCC4=O)N3)nc2c1 (stereo unspecified) | > 30 min
Cc1ccc2nc(NC3=NC(c4[nH]ncc4Cl)C4=C(CCCC4=O)N3)oc2c1 (stereo unspecified) | 15.8 min
COc1cccc(CNc2ccc(S(=O)(=O)Nc3ncc(-c4ccccc4)s3)cc2)c1O | > 30 min
COc1ccc(-c2csc(NC(=O)c3ccncc3NS(=O)(=O)c3ccc(C)cc3)n2)cc1 | 4.7 min
O=C(Cc1ccc(Cl)c(Cl)c1)Nc1ccc(S(=O)(=O)Nc2ccon2)cc1 | > 30 min
CCCCCOc1ccccc1/C(=C\SC)n1ccnc1 | 6.67 min
Fc1ccc(CNc2cc3c(cn2)CN(Cc2ccncc2)CCN3)cc1 | 15.9 min
CN1C(=O)CN=C(c2ccccc2Cl)c2cc(Cl)ccc21 | 3.04 min
COc1ccc(-c2c(-c3cc(C(=O)O)ccn3)ncn2C)cc1 | > 30 min
O=C(NC1CCCCC1)N1Cc2[nH]cnc2C[C@H]1c1nc(-c2cccc([N+](=O)[O-])c2)no1 | 10.3 min

SMILES | half-life
O=S(=O)(Nc1ccccc1N1CCCCC1)c1ccc(Cl)s1 | 2.02 min
CC1(C)CC2CC(C)(CN2S(=O)(=O)c2ccc(C(=O)Nc3ccc(Cl)cc3)cc2)C1 (stereo unspecified) | 2.3 min
CNc1oc(-c2cccc(-c3ccccc3)c2)nc1C#N | 12 min
COc1cccc(CNc2ccc(S(=O)(=O)Nc3nc4ccccc4o3)cc2)c1O | > 30 min
CCc1nnc(NC(=O)c2nc(S(=O)(=O)Cc3ccc(C)cc3)ncc2Cl)s1 | 7.58 min
Fc1cc(Nc2nc(-c3ccncc3)nc3ccccc23)ccc1-c1ccnc(C(F)(F)F)c1 | 8.6 min
Cc1cc(NS(=O)(=O)c2ccc(NC(=O)Cc3ccc(Cl)c(F)c3)cc2)no1 | > 30 min
CCOC(=O)c1cc(-c2ccco2)nc2c1c(C)nn2CCC#N | 3.57 min
Cc1ccc(-n2nc3c(N4CCCC(C(=O)NCc5ccccc5C)C4)nnc(C)c3c2C)cc1 (stereo unspecified) | 2.1 min
CC(C)Oc1ccc(CNC(=O)C2CCN(C(=O)N3CCOc4ccc(Cl)cc43)CC2)cc1 | 9.17 min
COc1cccc(CNc2ccc(S(=O)(=O)Nc3nccs3)cc2)c1O | > 30 min
CN1CCN(C(c2ccccc2)c2ccccc2)CC1 | 2.56 min
O=C1C(c2ccc(C(F)(F)F)cc2)=C(Nc2ccc(Cl)cc2)c2ccccc21 | 29.2 min
CNc1oc(-c2cccc3ccccc23)nc1C(=O)Nc1cccc(C#N)c1 | 17 min
Cc1ccc(S(=O)(=O)Nc2cnccc2C(=O)Nc2ccccc2)cc1 | 2.6 min
COc1ccccc1S(=O)(=O)Nc1cnccc1C(=O)Nc1nc(-c2ccccc2)cs1 | 16 min
O=C(O)CCC(=O)Nc1nc(-c2ccccc2)cs1 | > 30 min
Fc1ccc(-c2ccc(Nc3nc(-c4ccncc4)nc4ccccc34)cc2F)c(F)c1 | 23 min
CN1CCN(C2=Nc3ccccc3Sc3ccc(Cl)cc32)CC1 | 1.11 min
Nc1nc2c(s1)C(c1c(Cl)cccc1Cl)CC(=O)N2 (stereo unspecified) | 23.8 min
O=C(Cc1ccc(O)cc1)N1CC(CNc2ccccc2)C2(C1)CN(c1ccccc1)C2 (stereo unspecified) | 9.42 min
c1ccc2c(Nc3nccs3)nc(-c3ccncc3)nc2c1 | 6.4 min

SMILES | half-life
O=C(Cc1ccc(Cl)c(Cl)c1)Nc1ccc(S(=O)(=O)Nc2cccc(O)c2)cc1 | 10 min
CC(C)c1ccc2oc3nc(N)c(C(=O)O)cc3c(=O)c2c1 | > 30 min
FC1(F)CCN(c2nc(-c3ccncc3)nc3ccccc23)CC1 | 9.4 min
Cc1ccc(S(=O)(=O)Nc2ccccc2C(=O)Nc2ccc(-c3ccccc3)nc2)cc1 | 2.7 min
FC(F)(F)c1ccccc1-c1nc(NCc2ccc(Cl)cc2)c2ccccc2n1 | > 30 min
Cc1nc2sccn2c(=O)c1S(=O)(=O)Nc1ccc(N2CCN(S(C)(=O)=O)CC2)cc1 | > 30 min
Cc1ccc(-c2cc(C(=O)Nc3cccc(S(N)(=O)=O)c3)c3ccccc3n2)cc1C | 12 min
Cc1ccc(S(=O)(=O)Nc2ccccc2C(=O)Nc2nc(-c3ccccc3)cs2)cc1 | 2.4 min
O=C1Nc2ccccc2/C1=C\c1ccc(O)c(F)c1 | 20 min
COc1cccc(CNc2ccc(S(=O)(=O)Nc3nccs3)cc2)c1 | 15 min
O=c1c(-c2cccs2)ccc2n1C[C@H]1C[C@@H]2CN(C2CCOCC2)C1 | 14.6 min
O=C(Nc1ccc(Cl)cc1Cl)c1cnc2ccccc2n1 | 3 min
CC(O)(C#Cc1ccc2c(c1)N(c1nc(N)ncc1Cl)CC2)c1nccs1 (stereo unspecified) | 7.75 min
CCCCN1CCC[C@H]1CNC(=O)c1cc(C#N)c2ccccc2c1OC | 4.23 min
CC(=O)N1CCC2(CCCN(c3ccc(-c4ccccc4)cc3)C2)CC1 | 16 min
Fc1ccc(Nc2nc(-n3ccnc3)nc3ccccc23)cc1F | > 30 min
NC(=O)C1CCN(c2nc(-c3ccccc3[N+](=O)[O-])cs2)CC1 | 3.9 min
Cc1noc(C)c1C(=O)N1CCC2(CCCN(Cc3ccccc3)C2)CC1 | 7.2 min
Cc1nc([N+](=O)[O-])cn1-c1ccc([N+](=O)[O-])cc1 | > 30 min
O=C(Cn1c2ncccc2c(=O)n1-c1ccccc1)Nc1ccc(Cl)cc1C(F)(F)F | 4.81 min
Clc1ccc(-c2nnc(C3CCCCC3)o2)cc1 | 2.9 min
Cc1ccc(S(=O)(=O)Nc2cnccc2C(=O)Nc2nc(-c3cc(Br)cs3)cs2)cc1 | > 30 min

SMILES | half-life
CC(C)c1c(-c2ccccc2)nc2c(C#N)c[nH]n2c1=O | > 30 min
N[C@@H](Cc1cc(Br)c(O)c(Br)c1)C(=O)O | > 30 min
CCOc1ccc(CCNC(=O)c2cc3ccccc3n2Cc2ccc(Cl)c(F)c2)cc1OCC | 1.7 min
CN(C)c1cc(-c2nc(Nc3ccc(F)c(F)c3)c3ccccc3n2)ccn1 | 13 min
Cc1csc2c1c(=O)n(O)c(=O)n2Cc1ccccc1 | > 30 min
COc1ccccc1NC(=O)c1oc2ccccc2c1NC(=O)Cc1cccs1 | 6.77 min
Cn1cc2c3c(cccc31)CN(C(=O)c1ccc(F)c(Cl)c1)CC2 | 1.88 min
O=C(NCc1ccccc1)C1CCN(c2nc(-c3ccc(Br)cc3)cs2)CC1 | 1.75 min
COc1ccc(C(=O)NC2CCN(c3cnn(CC4CC4)c(=O)c3)CC2)c(OC)n1 | 13.9 min
Cc1ccc(-n2nc3c(=O)n(CCCC(=O)NCc4ccc(F)cc4)nc(C)c3c2C)cc1 | 2.77 min
CCOC(=O)C1CCN(C(=O)C2(NC(=O)Nc3ccccc3Cl)CCC2)CC1 | 1.7 min
CC1=C(C(=O)Nc2nncs2)C2(CCCC2)N=C(Nc2nc3ccccc3o2)N1 | > 30 min
Cc1nn2c(c1-c1ccccc1-c1ccccc1)N(CC1CC1)CCC2 | 2.78 min
COc1ccccc1N1CCN(CCN(C(=O)c2ccc(F)cc2)c2ccccn2)CC1 | 2.02 min
O=C(Nc1nc(-c2ccccc2)cs1)c1ccncc1NS(=O)(=O)c1ccccc1 | 13 min
O=C1Nc2cc(Cl)ccc2/C1=C\c1cc(Cl)c(O)c(Cl)c1 | > 30 min
N#Cc1ccccc1-c1csc(N2CCC(C(N)=O)CC2)n1 | 3.76 min
CCN(CC)CCNC(=O)C1CCN(c2nn3cc(-c4ccc(F)cc4)nc3s2)CC1 | > 30 min

Source: PubChem BioAssay AID1508591
